Experimental findings from patent US9067857B2, “Fluorine-containing aromatic compound and manufacturing method therefor” (Asahi Glass Company, Limited, priority 2012, dated 2015) are described below.

This series is described as follows: Solubility test of compound in various solvents (20 mg in 10 g solvent, visually judged). To be noted: 20 mg sample in 10 g solvent at room temperature (0.2% by mass). It is filed as physicochemical. Here is the method:
<Solubility Test of Compound>
In order to investigate applicability of the compound (e) obtained in the above Example 4 to a wet process, a solubility test of the compound in various solvents was conducted. In addition, a solubility test of anthracene was also conducted as Reference Example 2.
Specifically, 20 mg of a sample was weighed and it was visually judged whether it dissolves in 10 g of a solvent at room temperature (0.2% by mass).
In Table 3, “Yes” represents “soluble” and “No” represents “insoluble”.

Consider `c1ccc2cc3ccccc3cc2c1` [Anthracene, anthracene], for which the “Solubility in 1,2-Dichlorobenzene” value is “Yes (“Yes” represents “soluble”)”, the “Solubility in Chloroform” value is recorded as “Yes (“Yes” represents “soluble”)”, the “Solubility in Cyclohexane” value is given as “No (“No” represents “insoluble”)” and the “Solubility in Hexane” value was “No (“No” represents “insoluble”)”.
`FC(F)(F)C(F)(F)C(F)(F)C(F)(F)C(F)(F)C(F)(F)c1c2ccccc2c(C(F)(F)C(F)(F)C(F)(F)C(F)(F)C(F)(F)C(F)(F)F)c2ccccc12` [Compound (e), 9,10-bis(perfluorohexyl)anthracene]: the “Solubility in 1,2-Dichlorobenzene” value is “Yes (“Yes” represents “soluble”)”, the “Solubility in Chloroform” value is given as “Yes (“Yes” represents “soluble”)”, the “Solubility in Cyclohexane” value is reported as “Yes (“Yes” represents “soluble”)” and the “Solubility in Hexane” value was “Yes (“Yes” represents “soluble”)”.
